US20030152647A1, “Safe botanical drug for treating malignant pleural effusion and cancer and increasing immune function” (priority 2002, published 2003)

Tested on: peritoneal macrophage
Assay: Phagocytosis of peritoneal macrophage in mice
Assay type: in vivo
Conditions: drugs subcutaneously daily for 7 days
Experimental: Added 0.02 ml of 5% washed chick red blood cell suspension to 0.5 ml of the peritoneal exudate, shaken gently to mix and incubated at 37° C. for 5 minutes. Dipped two coverslips, closed to each other, in the above mixture and incubate for 30 minutes for the migration of the macrophages along the coverslips then fixed and stained with Sharma stain. Examined microscopically for: Phagocytic rate—number of macrophages with phagocytized chick red blood cells per 100 macrophages counted.
Method of animal model was regular. The drugs were injected subcutaneously daily for 7 days.

O=P1(N(CCCl)CCCl)NCCCO1 (stereo not shown) [CY, Cyclophosphamide]
Phagocytic rate (x + SD, %): 7.52 ± 0.46%
